For one assay, the system named is NR4A3. Kind of assay: NR4A3 protein expression under OGD-R, HUVEC (Western blot, immunofluorescence). The class given is cell-based, human. The conditions noted are these: OGD 4 hours, restoration 24 hours, 1, 3, 10 μM given at restoration. On the procedure: (§1) HUVEC cells were cultured in modified DMEM medium containing 10% fetal bovine serum. When the cells reached about 80% confluence, the cells were digested with 0.25% trypsin, and then pipetted evenly with modified DMEM containing 10% […]. The cell concentration was adjusted to 1×10^5 cells/mL, and the cells were seeded at 400 uL/well in a 24-well plate, and the experiment was carried out when the cells grew to about 70% confluence. RAOEC cells were cultured in high-glucose DMEM medium containing 10% fetal bovine serum, and the seeding conditions were the same as those of HUVEC. During the OGD-R injury treatment, the hypoxia workstation was set to have an oxygen concentration of 1% (1% O2, 5% CO2, 94% N2), a temperature of 37° C., and a humidity of 85%. A sugar-free DMEM medium was placed in the hypoxia workstation for pre-hypoxia for 3 hours. The medium in the culture plate was aspirated, and the plate was washed twice with preheated sugar-free DMEM medium, and 100 uL of sugar-free DMEM medium was added to each well. The culture plate was placed in the hypoxia workstation, and 300 uL of pre-hypoxic sugar-free DMEM medium was added to each well, and then the culture plate was placed in the hypoxia workstation for additional hypoxia for 4 hours. Restoration was then performed. The culture plate was taken out, and the sugar-free DMEM medium was replaced with 400 uL of normal medium containing 10% fetal bovine serum, and then the plate was placed in a 37° C. 5% CO2 cell incubator for culturing for 24 hours or a specified time period. For the cells in the normal group, it was only replaced with 400 uL of new normal medium containing 10% fetal bovine serum. […]
The cells were washed twice with pre-cooled PBS, then scraped off with a cell scraper and transferred to a 1.5 mL centrifuge tube, and centrifugation was performed at 4° C. and 1000 g for 5 minutes. […] Each protein sample was then quantified using the BCA protein quantification kit. After protein quantification, protein lysis buffer was used to adjust the protein concentration of each sample to be consistent with the protein sample with the lowest concentration, and then each protein sample was sufficiently mixed with 5× protein loading buffer at a ratio of 4:1. […]
On the technique in general: Immunoblotting shows a protein as a band on a membrane.

The subject of the next assay is NR4A3 mRNA. Kind of assay: NR4A3 mRNA under OGD-R, RAOEC (real-time fluorescent quantitative PCR). The conditions noted are these: 10 μM given at restoration. It is filed as cell-based, rat. On the procedure: as §1, with “performed.” for “performed. The culture plate was taken out, and the sugar-free DMEM medium was replaced with 400 uL of normal medium containing 10% fetal bovine serum, and then the plate was placed in a 37° C. 5% CO2 cell incubator for culturing for 24 hours or a specified time period. For the cells in the normal group, it was only replaced with 400 uL of new normal medium containing 10% fetal bovine serum.”

For `C[C@@]12CCCC1C1C[C@@H](O)[C@]3(O)C[C@@H](O)CC[C@]3(C)C1CC2` (stereo partly drawn) [YC-6, 5α-androst-3β,5,6β-triol], in the assay on NR4A3, the NR4A3 protein expression entry was “dose-dependently increase the protein expression of NR4A3”. Moreover, the “transcription level of NR4A3 (relative mRNA expression)” value with NR4A3 mRNA is recorded as “did not significantly up-regulate the transcription level of NR4A3”.

The values are drawn from patent US12594282B2, “Use of small molecule compounds in the treatment of diseases mediated by lung epithelial cell injury and/or vascular endothelial cell injury” (Guangzhou Cellprotek Pharmaceutical Co., Ltd., priority 2020, dated 2026).
